The record followed here is ChEMBL document CHEMBL5120836, “Discovery of novel 7,8-dihydropteridine-6(5H)-one-based DNA-PK inhibitors as potential anticancer agents via scaffold hopping strategy” (Eur J Med Chem, 2022).

For data set [1], the target named is DNA-dependent protein kinase catalytic subunit (Homo sapiens, UniProt P78527). Description: Inhibition of human native full length DNA-PK by ADP-Glo assay. On the technique in general: In ADP-Glo the light output rises with the ADP produced.
Sequence of DNA-dependent protein kinase catalytic subunit (P78527 whole entry): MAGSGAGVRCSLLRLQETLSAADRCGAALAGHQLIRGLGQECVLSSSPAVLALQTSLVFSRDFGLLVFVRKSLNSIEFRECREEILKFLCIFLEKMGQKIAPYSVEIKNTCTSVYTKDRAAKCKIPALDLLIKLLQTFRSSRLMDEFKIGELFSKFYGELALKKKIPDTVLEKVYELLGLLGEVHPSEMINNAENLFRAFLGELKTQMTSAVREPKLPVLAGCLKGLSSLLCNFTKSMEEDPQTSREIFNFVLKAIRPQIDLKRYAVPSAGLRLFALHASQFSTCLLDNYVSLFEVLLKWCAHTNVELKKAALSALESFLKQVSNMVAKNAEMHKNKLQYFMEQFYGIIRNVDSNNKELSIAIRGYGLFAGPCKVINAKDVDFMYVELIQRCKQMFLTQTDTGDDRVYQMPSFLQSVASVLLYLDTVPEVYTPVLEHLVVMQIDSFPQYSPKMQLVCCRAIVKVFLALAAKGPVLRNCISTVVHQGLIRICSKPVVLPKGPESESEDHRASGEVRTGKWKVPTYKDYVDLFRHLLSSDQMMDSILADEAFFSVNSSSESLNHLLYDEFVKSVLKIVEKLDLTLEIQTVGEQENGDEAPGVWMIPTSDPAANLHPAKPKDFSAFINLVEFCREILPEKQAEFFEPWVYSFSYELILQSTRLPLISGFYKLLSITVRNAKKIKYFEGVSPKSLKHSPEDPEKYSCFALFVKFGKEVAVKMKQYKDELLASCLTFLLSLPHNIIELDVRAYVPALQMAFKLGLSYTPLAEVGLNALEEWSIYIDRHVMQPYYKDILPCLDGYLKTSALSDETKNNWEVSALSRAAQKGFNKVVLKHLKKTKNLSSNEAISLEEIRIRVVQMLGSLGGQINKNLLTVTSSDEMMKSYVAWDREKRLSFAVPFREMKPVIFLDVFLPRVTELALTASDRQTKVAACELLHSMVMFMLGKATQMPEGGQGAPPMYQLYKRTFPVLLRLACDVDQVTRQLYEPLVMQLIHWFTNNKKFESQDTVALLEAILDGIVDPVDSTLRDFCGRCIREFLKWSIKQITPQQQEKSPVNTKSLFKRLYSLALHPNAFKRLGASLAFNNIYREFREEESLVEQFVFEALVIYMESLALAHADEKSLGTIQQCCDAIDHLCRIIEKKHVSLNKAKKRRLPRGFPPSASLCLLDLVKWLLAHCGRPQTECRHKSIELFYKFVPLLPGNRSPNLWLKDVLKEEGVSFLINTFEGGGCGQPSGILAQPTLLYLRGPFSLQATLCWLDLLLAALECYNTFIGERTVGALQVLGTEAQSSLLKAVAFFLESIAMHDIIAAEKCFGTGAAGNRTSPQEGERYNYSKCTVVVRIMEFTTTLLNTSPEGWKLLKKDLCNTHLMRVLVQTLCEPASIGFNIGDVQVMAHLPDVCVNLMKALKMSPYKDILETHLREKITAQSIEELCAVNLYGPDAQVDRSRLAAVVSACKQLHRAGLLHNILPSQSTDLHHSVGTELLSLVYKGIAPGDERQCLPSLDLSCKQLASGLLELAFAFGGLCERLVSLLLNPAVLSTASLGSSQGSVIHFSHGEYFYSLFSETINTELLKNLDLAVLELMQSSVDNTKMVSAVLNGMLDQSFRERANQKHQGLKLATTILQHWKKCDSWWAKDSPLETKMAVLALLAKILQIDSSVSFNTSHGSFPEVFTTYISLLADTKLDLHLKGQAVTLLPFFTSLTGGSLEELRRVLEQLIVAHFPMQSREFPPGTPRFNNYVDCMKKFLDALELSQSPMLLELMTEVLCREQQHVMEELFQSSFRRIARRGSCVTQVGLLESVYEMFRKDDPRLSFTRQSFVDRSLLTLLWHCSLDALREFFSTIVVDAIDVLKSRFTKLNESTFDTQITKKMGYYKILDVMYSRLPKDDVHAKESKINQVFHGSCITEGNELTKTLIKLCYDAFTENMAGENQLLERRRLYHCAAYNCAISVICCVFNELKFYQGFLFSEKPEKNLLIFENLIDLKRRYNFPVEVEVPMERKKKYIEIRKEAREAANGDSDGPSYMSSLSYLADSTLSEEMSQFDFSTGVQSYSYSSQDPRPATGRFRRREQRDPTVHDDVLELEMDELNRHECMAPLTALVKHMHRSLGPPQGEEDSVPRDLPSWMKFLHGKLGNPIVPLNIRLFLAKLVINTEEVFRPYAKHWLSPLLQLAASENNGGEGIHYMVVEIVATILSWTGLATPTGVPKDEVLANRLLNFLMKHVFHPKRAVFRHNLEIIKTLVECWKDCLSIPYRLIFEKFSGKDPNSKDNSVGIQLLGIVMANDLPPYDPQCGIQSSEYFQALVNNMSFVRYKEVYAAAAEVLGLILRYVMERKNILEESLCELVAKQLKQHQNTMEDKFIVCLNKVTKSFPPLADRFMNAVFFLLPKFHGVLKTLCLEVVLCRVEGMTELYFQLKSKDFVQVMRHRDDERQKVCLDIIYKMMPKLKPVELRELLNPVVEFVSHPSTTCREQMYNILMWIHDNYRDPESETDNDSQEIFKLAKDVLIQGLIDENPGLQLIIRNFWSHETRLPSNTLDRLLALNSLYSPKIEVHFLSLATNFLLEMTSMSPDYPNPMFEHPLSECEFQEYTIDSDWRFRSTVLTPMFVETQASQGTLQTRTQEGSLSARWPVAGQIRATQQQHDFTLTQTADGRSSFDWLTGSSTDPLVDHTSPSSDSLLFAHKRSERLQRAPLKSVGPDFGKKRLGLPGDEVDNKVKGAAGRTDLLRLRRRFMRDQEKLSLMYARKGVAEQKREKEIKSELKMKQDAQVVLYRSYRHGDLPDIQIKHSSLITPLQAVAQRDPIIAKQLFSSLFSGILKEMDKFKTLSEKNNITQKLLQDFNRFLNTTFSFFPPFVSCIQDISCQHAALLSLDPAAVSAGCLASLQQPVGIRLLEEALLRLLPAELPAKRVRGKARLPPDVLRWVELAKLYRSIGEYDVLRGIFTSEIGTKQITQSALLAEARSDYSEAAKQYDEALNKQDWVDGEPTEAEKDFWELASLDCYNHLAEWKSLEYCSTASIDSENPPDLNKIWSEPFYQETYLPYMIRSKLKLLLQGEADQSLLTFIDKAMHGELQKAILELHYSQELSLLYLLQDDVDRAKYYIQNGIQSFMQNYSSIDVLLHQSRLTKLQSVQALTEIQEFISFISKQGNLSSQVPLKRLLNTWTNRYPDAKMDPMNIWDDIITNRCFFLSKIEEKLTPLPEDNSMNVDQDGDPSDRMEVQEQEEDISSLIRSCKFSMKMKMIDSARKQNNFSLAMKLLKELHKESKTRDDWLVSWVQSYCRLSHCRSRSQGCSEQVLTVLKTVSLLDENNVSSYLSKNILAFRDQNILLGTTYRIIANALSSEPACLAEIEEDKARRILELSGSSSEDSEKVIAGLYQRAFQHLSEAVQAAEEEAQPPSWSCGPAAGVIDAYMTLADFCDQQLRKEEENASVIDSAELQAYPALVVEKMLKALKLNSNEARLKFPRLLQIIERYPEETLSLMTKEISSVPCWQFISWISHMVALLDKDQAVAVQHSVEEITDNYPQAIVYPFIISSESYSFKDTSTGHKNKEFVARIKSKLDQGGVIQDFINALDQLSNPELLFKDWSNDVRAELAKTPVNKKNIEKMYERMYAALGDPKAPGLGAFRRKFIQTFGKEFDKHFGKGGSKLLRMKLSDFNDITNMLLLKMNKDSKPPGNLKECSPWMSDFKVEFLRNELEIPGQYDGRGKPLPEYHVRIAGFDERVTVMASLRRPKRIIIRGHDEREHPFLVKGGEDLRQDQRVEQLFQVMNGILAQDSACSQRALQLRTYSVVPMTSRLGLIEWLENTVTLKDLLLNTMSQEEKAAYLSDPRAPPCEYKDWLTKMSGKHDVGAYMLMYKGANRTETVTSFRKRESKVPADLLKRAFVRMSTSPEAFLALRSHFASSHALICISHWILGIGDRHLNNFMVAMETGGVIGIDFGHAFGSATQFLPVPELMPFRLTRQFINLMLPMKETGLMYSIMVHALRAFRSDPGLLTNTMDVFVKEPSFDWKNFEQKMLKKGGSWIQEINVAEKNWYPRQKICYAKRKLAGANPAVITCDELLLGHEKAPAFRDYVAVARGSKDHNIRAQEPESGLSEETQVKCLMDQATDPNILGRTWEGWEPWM
Data set [2] concerns HL-60. Kind of data set: Synergistic antitumor activity against human HL-60 cells xenografted in BALB/c nude mouse assessed as tumor volume at 100 mg/kg, po qd for 16 days co-administered with doxorubicin (reference value: 32.2%). In kind it is functional. As to conditions: HL-60, 384 h, time 16 day. A general note: In xenograft studies the graft and the host belong to different species.

Data set [3] in a line: Plasma protein binding in human assessed as free fraction. It is filed as ADME, cell-free.
Data set [4] concerns HCT-116. Kind of data set: Induction of cell cycle arrest in human HCT-116 cells assessed as increase in accumulation of cells at G2/M phase at 1 uM incubated for 24 hrs in presence of 100 nM doxorubicin by PI staining based flow cytometry. It is filed as functional. For orientation: In flow cytometry, cells or beads pass a laser one at a time.
The subject of data set [5] is HCT-116. Kind of data set: Induction of apoptosis in human HCT-116 cells assessed as late apoptotic cells at 1 uM incubated for 24 hrs in presence of 100 nM doxorubicin by AnnexinV-FITC/PI staining based flow cytometry (reference value: 3.07%). It is filed as functional.
The nature of data set [6]: Lipophilicity, logP of the compound. In kind it is physicochemical. As to conditions: octanol/water.
In data set [7] the test system is HCT-116. Kind of data set: Disruption of mitochondrial function in human HCT-116 cells assessed as decrease in mitochondrial membrane potential by measuring proportion of cells with green fluorescence at 1 uM incubated for 24 hrs by JC-1 staining based flow cytometry (reference value: 0.566%). Also on record: scale not given: the % may be the effect or the level left. It is filed as functional.

In data set [8] the test system is HL-60. Kind of data set: Synergistic antitumor activity against human HL-60 cells xenografted in BALB/c nude mouse assessed as tumor weight at 100 mg/kg, po qd for 16 days co-administered with doxorubicin (reference value: 27.9%). It is filed as functional. As to conditions: HL-60, 384 h, time 16 day.
Data set [9] deals with HCT-116. Description: Induction of apoptosis in human HCT-116 cells assessed as late apoptotic cells at 1 uM incubated for 24 hrs by AnnexinV-FITC/PI staining based flow cytometry (reference value: 3.07%). In kind it is functional.
In data set [10] the test system is HCT-116. Kind of data set: Induction of apoptosis in human HCT-116 cells assessed as necrotic cells at 1 uM incubated for 24 hrs in presence of 100 nM doxorubicin by AnnexinV-FITC/PI staining based flow cytometry (reference value: 0.031%). It is filed as functional.
A short description of data set [11]: AUC (0 to infinity) in Sprague-Dawley rat at 5 mg/kg, po. It is filed as ADME, organism-based. Set-up: time infinity, dose 5 mg/kg, route po. To be noted: in vivo.
Data set [12] deals with HCT-116. Kind of data set: Induction of apoptosis in human HCT-116 cells assessed as early apoptotic cells at 1 uM incubated for 24 hrs in presence of 100 nM doxorubicin by AnnexinV-FITC/PI staining based flow cytometry (reference value: 3.04%). In kind it is functional.
Data set [13] relates to HCT-116. Kind of data set: Induction of apoptosis in human HCT-116 cells assessed as viable cells at 1 uM incubated for 24 hrs in presence of 100 nM doxorubicin by AnnexinV-FITC/PI staining based flow cytometry (reference value: 93.9%). In kind it is functional. To be noted: read-out: Activity.
Data set [14] has as its system HCT-116. Description: Induction of apoptosis in human HCT-116 cells assessed as early apoptotic cells at 1 uM incubated for 24 hrs by AnnexinV-FITC/PI staining based flow cytometry (reference value: 3.04%). In kind it is functional.
A short description of data set [15]: Kinetic solubility of the compound in phosphate-buffered solution at pH 7.4 incubated for 24 hrs by HPLC-MS/MS analysis. In kind it is physicochemical. To be noted: phosphate buffer, read-out: Kinetic_solubility.
For data set [16], the system named is HCT-116. Kind of data set: Synergistic antiproliferative activity against human HCT-116 cells assessed as combination index at 1 uM in presence of 100 nM doxorubicin by MTT assay. In kind it is functional.
The nature of data set [17]: MRT (0 to infinity) in Sprague-Dawley rat at 5 mg/kg, po. To be noted: in vivo. It is filed as ADME, organism-based.
A short description of data set [18]: Tmax in Sprague-Dawley rat at 5 mg/kg, po. In kind it is ADME, organism-based. To be noted: in vivo.
Data set [19] is described as follows: Cmax in Sprague-Dawley rat at 5 mg/kg, po. It is filed as ADME, organism-based. As to conditions: in vivo. Set-up: dose 5 mg/kg, route po.
Data set [20] is described as follows: Toxicity in BALB/c nude mouse xenografted with human HL-60 cells assessed as effect on body weight at 100 mg/kg, po qd for 16 days co-administered with doxorubicin. In kind it is organism-based. As to conditions: in vivo, 384 h, time 16 day.
Data set [21] concerns HCT-116. Kind of data set: Antiproliferative activity against human HCT-116 cells assessed as inhibition of cell growth incubated for 48 hrs in presence of 100 nM doxorubicin by MTT assay. In kind it is functional, cell-based. As to conditions: HCT-116, 48 h.
The nature of data set [22]: Plasma protein binding in rat assessed as free fraction. In kind it is ADME, cell-free.
In data set [23] the test system is HCT-116. Kind of data set: Disruption of mitochondrial function in human HCT-116 cells assessed as decrease in mitochondrial membrane potential by measuring proportion of cells with red fluorescence at 1 uM incubated for 24 hrs by JC-1 staining based flow cytometry (reference value: 99.4%). In kind it is functional. Set-up: scale not given: the % may be the effect or the level left.

Data set [24] deals with HCT-116. Kind of data set: Induction of cell cycle arrest in human HCT-116 cells assessed as increase in accumulation of cells at […] at 1 uM incubated for 24 hrs in presence of 100 nM doxorubicin by PI staining based flow cytometry. In kind it is functional.
The test system of data set [25] is HCT-116. Kind of data set: Induction of apoptosis in human HCT-116 cells assessed as necrotic cells at 1 uM incubated for 24 hrs by AnnexinV-FITC/PI staining based flow cytometry (reference value: 0.031%). In kind it is functional.
Data set [26] is described as follows: Toxicity in BALB/c nude mouse xenografted with human HL-60 cells assessed as effect on body weight at 100 mg/kg, po qd for 16 days. In kind it is organism-based. To be noted: in vivo, 384 h, time 16 day.
Data set [27] has as its system HCT-116. Kind of data set: Induction of apoptosis in human HCT-116 cells assessed as viable cells at 1 uM incubated for 24 hrs by AnnexinV-FITC/PI staining based flow cytometry (reference value: 93.9%). In kind it is functional. As to conditions: read-out: Activity.
The nature of data set [28]: Kinetic solubility of the compound in phosphate-buffered solution at pH 6.4 incubated for 24 hrs by HPLC-MS/MS analysis. To be noted: phosphate buffer, read-out: Kinetic_solubility. In kind it is physicochemical.
The test system of data set [29] is HCT-116. Description: Antiproliferative activity against human HCT-116 cells assessed as inhibition of cell growth incubated for 48 hrs by MTT assay. In kind it is functional, cell-based. To be noted: HCT-116, 48 h.

In brackets after ≈: the same amount, converted by molar mass. Activity calls are given as the source filed them. No cut-off for these calls is given here.

The IC50 is the concentration that gives 50% inhibition. As usually defined, the inhibition in vivo is the change of the read-out against control, counted positive when it falls. For orientation: fraction unbound means the share of the substance not bound to proteins or other matrix. One may read the logP as a log measure of how a compound divides between an organic and an aqueous phase. One may read the AUC(0-inf) as the area under the concentration-time curve extrapolated to infinity. The MRT inf is the average time that molecules of a dose stay in the body. A word on the Tmax: it is the time at which the peak concentration occurs. Broadly, the Cmax is the peak of the concentration-time curve.

On to `Cc1cc2ncccc2cc1Nc1ncc2c(n1)N(C1CCOCC1)CC(=O)N2C`, for which, in data set [1], half-maximal inhibition (IC50) required 0.0069 µM.

As to `Cc1cc2ncnn2cc1Nc1ncc2c(n1)C1(CCC(OCC(F)F)CC1)C(=O)N2C` (stereo unspecified), in [1], half-maximal inhibition (IC50) required 0.0169 µM.

Turning to `Cc1cc2ncnn2cc1Nc1ncc2c(n1)N(C1CCOCC1)CC(=O)N2`, in data set [1], the IC50 came to 0.00706 µM.

For `CCN1C(=O)CN(C2CCOCC2)c2nc(Nc3cn4ncnc4cc3C)ncc21`, in [1], 0.00337 µM corresponded to half-maximal inhibition (IC50).

For `Cc1cc2ncnn2cc1Nc1ncc2c(n1)C1(CCOCC1)C(=O)N2C(C)C`, the IC50 in data set [1] is 0.22 µM.

`Cc1cc2ncnn2cc1Nc1ncc2c(n1)N(C1CCOCC1)CC(=O)N2C1CC1` gave an IC50 in data set [1] of 0.00676 µM.

In data set [1], `Cc1cc2ncccc2cc1Nc1ncc2c(n1)C1(CCOCC1)C(=O)N2C` showed an IC50 of 0.0105 µM.

As to `Cc1cc2nccnc2cc1Nc1ncc2c(n1)N(C1CCOCC1)CC(=O)N2C`, in [1], the IC50 stood at 0.00326 µM.

As for `Cc1cc2ncnn2cc1Nc1ncc2c(n1)N(C1CCOCC1)CC(=O)N2C(C)C`, the IC50 in [1] was 0.0255 µM.

Regarding `Cc1cc2ncnn2cc1Nc1ncc2c(n1)C1(CCC1)C(=O)N2C`, the IC50 in data set [1] was 0.0214 µM.

In data set [1], `CCN1C(=O)C2(CCOCC2)c2nc(Nc3cn4ncnc4cc3C)ncc21` displayed a concentration for half-maximal inhibition (IC50) of 0.135 µM.

For `[2H]C([2H])([2H])N1C(=O)C2(CCOCC2)c2nc(Nc3cn4ncnc4cc3C)ncc21`, it took 0.127 µM to reach half-maximal inhibition in data set [1] (IC50).

Consider `Cc1cc2ncnn2cc1Nc1ncc2c(n1)C(C)(C)C(=O)N2C`, for which the IC50 in data set [1] is 0.0479 µM.

For `Cc1cc2ncnn2cc1Nc1ncc2c(n1)n(C1CCOCC1)c(=O)n2C` [AZD-7648], the inhibition in vivo at 100 mg/kg in the data set with HL-60 [2] is 68.1%; with HL-60 [8], 55.3%. Also, the figures for the fraction unbound in [3] and in data set [22] were 0.834 and 0.653, respectively. In addition, the Activity amounted to 64.46% in the data set on HCT-116 [4]; 7.33% with HCT-116 [5]; 7.64% in the data set with HCT-116 [7]; 4.53% in the data set on HCT-116 [9]; 0.102% in the data set on HCT-116 [10]; 10.3% in the data set on HCT-116 [12]. Also, the Activity in the data set on HCT-116 [14] is 2.76%; in [20], “Non-Toxic”; in the data set with HCT-116 [23], 92.2%; in the data set on HCT-116 [25], 0.05%; in data set [26], “Non-Toxic”. Further, in [6], the logP amounted to 1.2. Besides, the AUC(0-inf) in data set [11] was found to be 5240 ng·h/mL. Further, the figures for the viability at 1 µM in the data set on HCT-116 [13] and in the data set with HCT-116 [27] were 82.3% and 92.7%, respectively. In addition, the solubility kinetic at 24 h is 120 µg/mL (≈ 316 µM) in data set [15] and 101 µg/mL (≈ 266 µM) in [28]. In addition, the CI in the data set with HCT-116 [16] is 0.79. Further, the MRT inf in data set [17] stood at 2.51 h. Moreover, the Tmax in [18] worked out at 0.83 h. The maximum concentration (Cmax) in data set [19] stood at 1500 ng/mL. Also, the IC50 in the data set with HCT-116 [21] stood at 19.5 µM; in the data set on HCT-116 [29] it was 35.3 µM. For the same compound, the result in the data set with HCT-116 [24] was Active.
